{"source": "patent US20150265661A1", "about": "“PREBIOTIC EFFECT OF SIALYLLACTOSE” (Trustees of Boston College, priority 2012, published 2015)", "key": {"[1]": {"test_system": "Bifidobacteria sp. (ten strains of Table 2)", "assay": "Growth (OD 600 nm) and pH of bacterial strains in ZMB1 with oligosaccharide as sole carbon source", "assay_type": "cell-based, Bifidobacterium longum, Bifidobacterium infantis", "conditions": "for utilization as a primary carbon source by ten different Bifidobacteria: concentrations indicated in FIGS. 4 and 5; for numbers of bifidobacteria: in vitro fermentation, vs control; for prebiotic effects on Bifidobacteria strains: sialyllactose alone, FIG. 5"}, "Escherichia coli W3110": {"test_system": "Escherichia coli W3110", "assay": "Growth (OD 600 nm) and pH of bacterial strains in ZMB1 with oligosaccharide as sole carbon source", "assay_type": "cell-based", "conditions": "48 h, FIG. 4"}, "[2]": {"test_system": "Clostridium perfringens ATCC 13124", "assay_type": "cell-based", "conditions": "48 h, sole carbon source, FIG. 4"}}, "data": [{"molecule": "CC(=O)N[C@H]1[C@H]([C@H](O)[C@H](O)CO)O[C@@](O[C@H]2[C@@H](O)[C@@H](CO)O[C@@H](O[C@H]3[C@H](O)[C@@H](O)C(O)O[C@@H]3CO)[C@@H]2O)(C(=O)O)C[C@@H]1O", "note": "(some centres unmarked) [3′-SL, 3′-sialyllactose]", "values": [{"measurement": "utilization as a primary carbon source by ten different Bifidobacteria", "setting": "[1]", "value": "could utilize"}, {"measurement": "numbers of bifidobacteria", "setting": "[1]", "value": "significantly higher"}, {"measurement": "prebiotic effects on Bifidobacteria strains", "setting": "[1]", "value": "showed prebiotic effects on some Bifidobacteria strains"}]}, {"molecule": "CC(=O)N[C@H]1[C@H]([C@H](O)[C@H](O)CO)O[C@@](OC[C@H]2O[C@@H](O[C@H]3[C@H](O)[C@@H](O)[C@H](O)O[C@@H]3CO)[C@H](O)[C@@H](O)[C@H]2O)(C(=O)O)C[C@@H]1O", "note": "[6′-SL, 6′-sialyllactose]", "values": [{"measurement": "utilization as a primary carbon source by ten different Bifidobacteria", "setting": "[1]", "value": "could utilize"}, {"measurement": "numbers of bifidobacteria", "setting": "[1]", "value": "significantly higher"}, {"measurement": "prebiotic effects on Bifidobacteria strains", "setting": "[1]", "value": "showed prebiotic effects on some Bifidobacteria strains"}]}, {"molecule": "lactodifucotetraose [LDFT]", "values": [{"measurement": "growth of the Bifidobacteria sp.", "setting": "[1]; 48 h, sole carbon source (2'-FL 2 g/L, 3-FL 2 g/L, LDFT 1 g/L), vs control without substrate", "value": "significantly increase"}, {"measurement": "pH in the culture of Bifidobacteria", "setting": "[1]; 48 h, sole carbon source, vs control without substrate", "value": "decrease the pH"}, {"measurement": "utilization as a primary carbon source by ten different Bifidobacteria", "setting": "[1]", "value": "could utilize"}, {"measurement": "numbers of bifidobacteria", "setting": "[1]", "value": "significantly higher"}, {"measurement": "growth of E. coli", "setting": "Escherichia coli W3110", "value": "no significant increase"}, {"measurement": "pH in the culture of E. coli", "setting": "Escherichia coli W3110", "value": "no significant increase on its growth and decrease in pH"}, {"measurement": "growth of C. perfringens", "setting": "[2]", "value": "no significant increase"}, {"measurement": "pH in the culture of C. perfringens", "setting": "[2]", "value": "no significant increase on its growth and decrease in pH"}]}]}
